Counter-ions that a name gives are not always drawn.
Experiments:
[1] = Stability of mCBS vs CBS in formulated clinical material (HPLC); format: physicochemical; details: formulated clinical material in phosphate buffer, 5±3° C., 25±2° C./60% RH, 40±2° C./75% RH
Description: Stability studies were carried out at 5±3° C., 25±2° C./60% RH and 40±2° C./75% RH ° C. conditions. Levels of both mCBS and cellobiose sulfate (CBS) were tracked in formulated clinical material (i.e. mCBS in phosphate buffer) via HPLC.

[2] = mCBS vs CBS levels in bulk powder stored at −20° C. (CAD); format: physicochemical
Description: Table 2b compares mCBS vs CBS levels in a representative batch of bulk powder when stored at −20° C. over 24 months. T is for time in months. T=0 or T0 represents analytical results carried out on completion of manufacture. Subsequent analysis indicated are relative to the initial analysis of the drug powder or formulation (e.g. […] Analytical method employing CAD (Charged Aerosol Detector) was used to measure the level of mCBS purity and its impurities and expressed as CAD %.

Sprague Dawley rats = tested on: Sprague Dawley rats
Description: This study examined toxicity from repeat IV administration of mCBS in rats over 7 days with doses up to 1000 mg/kg.
The acute tolerability and toxicity of β-O-methyl cellobioside sulfate was assessed in Sprague Dawley rats following daily intravenous dose administration for a period of seven days. A total of four groups of n=3 adult female rats were treated with 0, 100, 300 and 1000 mg/kg doses of mCBS in the form of the sodium salt (mCBS.Na) in this repeated dose study. […] The rats were then observed for 7 days prior to termination with gross necropsy and terminal haematology and biochemistry analyses. An additional group of n=3 male rats were also treated at the highest dose of 1000 mg/kg according to the same study design.

human RBCs [3] = experiment: Histone-induced RBC aggregation (flow cytometry autofluorescence, SEM); format: cell-based
human RBCs [4] = experiment: Histone-induced RBC fragility / lysis under shear; format: cell-based
mice = experiment: In-vivo histone toxicity assay, circulating blood cells at 10 min; parameters: species or system mouse; details: 100 mg/kg i.p. 10 min prior to histones 50 mg/kg i.v.; bled 10 min later
Description: In-vivo histone toxicity assays. BALB/c female mice (5˜6 weeks of age), that are more prone to histone-induced anemia and easier to inject i.v. at this young age than C57BL/6 mice, were injected i.p. with test compounds at concentrations indicated 10 min prior to i.v. injection of histones (50 mg kg^−1) in phosphate buffered saline. Retro-orbital bleeds were performed at 10 min after histone injection and collected blood added to acid citrate dextrose (ACD), the 10 min blood sample being subjected to hematologic analyses for platelet and erythrocyte content using an ADVIA 2120i Hematology Analyzer. Spleens were also harvested at 10 min post-histone injection and splenic hemoglobin content quantified using a hemoglobin assay kit (Sigma-Aldrich). In the case of 4 h blood samples, male C57/BL/6 mice (6-8 weeks of age) were injected with test compounds and histones as above and plasma isolated and stored frozen for subsequent biochemical testing, with markers for liver (alanine aminotransferase, ALT), kidney (Creatinine, Crea) and general tissue (lactate dehydrogenase, LDH) damage being determined by the Department of Pathology, The Canberra Hospital.
Accordingly, the inventors in this example investigated the protective effect of mCBS on cells within the blood stream following intravenous injection of histones. […]

Wistar rats = experiment: Rat caecal ligation and puncture (CLP), moderate sepsis; format: in vivo
Description: Male Wistar rats (n=8/group) underwent laparotomy, caecal ligation and puncture (CLP) to stimulate faecal peritonitis and subsequent sepsis, then treated with saline (Control CLP) or 50 mg/kg of mCBS at 0, 5 and 10 hr post-op via i.p. injection and monitored for 20 hr. Once rats reached a state of severe morbidity they were humanely euthanased at which point a death was recorded.
Rat caecal ligation and puncture (CLP) assay for sepsis. The CLP assay was performed in male Wistar rats as previously described (see Hubbard, W. J. et al. Cecal ligation and puncture. Shock 24 Suppl 1, 52-57 (2005).). Test compounds (50 mg kg^−1) dissolved in saline or an equivalent volume of saline only (Control cohort) were administered i.p. 5 min pre-CLP and 5, 10 and 15 h post-op until cessation of the experiment at 20 h. Sham-CLP rats underwent the same procedure, however, the caecum was not ligated or punctured and these rats received saline at the same times as above. At the conclusion of the experimental time period (20 h) or when morbidity required ethical euthanasia, the rats were anaesthetised and blood was collected via cardiac puncture into EDTA for subsequent analysis of liver (ALT) and kidney (creatinine) function by the Department of Pathology, The Canberra Hospital. The propensity for clots to form within the blood samples of the saline treated control CLP animals (despite the presence of EDTA) prevented successful analysis of plasma samples from all animals.

[5] = tested on: human microvascular endothelial cells (HMECs)
[6] = histones 400 μg/mL 55 min, then mCBS 5 min
[7] = mCBS 100 μg/mL added prior to histones 400 μg/mL, 60 min

Compound: CO[C@@H]1O[C@H](COS(=O)(=O)O)[C@@H](O[C@@H]2O[C@H](COS(=O)(=O)O)[C@@H](OS(=O)(=O)O)[C@H](OS(=O)(=O)O)[C@H]2OS(=O)(=O)O)[C@H](OS(=O)(=O)O)[C@H]1OS(=O)(=O)O [mCBS, β-O-methyl cellobioside sulfate]
- level relative to starting amount (T=0) over time [1]: very stable
- stability when stored in powder ([2]; 24 months): high stability
- level in bulk powder ([2]; T0 (months)): 98.56 CAD %
- level in bulk powder ([2]; T1): 98.45 CAD %
- level in bulk powder ([2]; T3): 98.28 CAD %
- level in bulk powder ([2]; T6): 98.22 CAD %
- level in bulk powder ([2]; T9): 97.77 CAD %
- level in bulk powder ([2]; T12): 98.00 CAD %
- level in bulk powder ([2]; T18): 97.94 CAD %
- level in bulk powder ([2]; T24): 98.26 CAD %
- tolerability (Sprague Dawley rats; daily IV bolus 100, 300 and 1000 mg/kg for 7 days): well tolerated at all dose levels
- MTD, as free base (Sprague Dawley rats; daily IV bolus for 7 days, corrected for purity and sodium content): 815 mg/kg
- MTD (Sprague Dawley rats; daily IV bolus for 7 days, dose as sodium salt form): 1000 mg/kg
- Hematology and biochemistry parameters (Sprague Dawley rats; daily IV bolus up to 1000 mg/kg for 7 days): unremarkable
- inhibition of histone-induced RBC aggregation (human RBCs [3]; 0-200 μg/mL added prior to 400 μg/mL histones): inhibit histone-induced RBC aggregation in a dose dependent manner
- reversal of histone-induced RBC aggregation (human RBCs [3]; [6]): near complete inhibition
- prevention of histone-induced RBC aggregation (human RBCs [3]; mCBS 200 μg/mL, histones 400 μg/mL 60 min): prevented
- inhibition of histone-induced RBC lysis under shear (human RBCs [4]; 0-200 μg/mL prior to 400 μg/mL histones 60 min, 100 mm/s, 40× repetitions): inhibit histone-induced lysis under shear in a dose-dependent manner
- reversal of histone-induced RBC susceptibility to lysis (human RBCs [4]; [6]): near complete inhibition
- histone-mediated reductions in circulating leukocytes, platelets, erythrocytes and haemoglobin (mice): significantly inhibited if not completely abolished
- survival rate (Wistar rats; 50 mg/kg i.p. at 0, 5 and 10 hr post-op, monitored 20 hr): 100%
- circulating LDH levels (Wistar rats; 50 mg/kg i.p., Control CLP 1.1±0.2, p=0.03): 0.6±0.1 U/L×10^3
- ALT or creatinine levels between the groups (Wistar rats; mCBS vs Control CLP): No differences
- effect of increasing concentration on viable/dead cells ([5]; histones 400 μg/mL, increasing concentrations of mCBS): an increase in viable cells (Calcein-AM uptake) and a reduction in dead cells (PI uptake)
- HMECs reverted from PI uptake to PI exclusion and calcein-AM uptake ([5]; histones 400 μg/ml 60 min, then mCBS 100 μg/ml for 10 min): approximately 30%
- protection from histone-mediated injury ([5]; mCBS 25 μg/mL + histones 400 μg/mL): reduced level of protection
- dead cells (PI uptake) [5, 7]: 20%
- viable cells (calcein-AM) [5, 7]: 74%

— US11628179B2, “Compounds for treating and preventing extracellular histone mediated pathologies” (priority 2017, dated 2023)
